Assay results reported in US20250281453A1, “COMBINATION THERAPIES COMPRISING QTX125” (QUIMATRYX, S.L., priority 2022, published 2025).

Tests used:
[1] = system: SK-OV-3 ovarian cancer cells; test: QTX125-containing combination therapy, hexosaminidase cell viability; format: cell-based; conditions: for EC50: Homo sapiens, SK-OV-3, SK-Ov-3; for combination index (C.I): SK-Ov-3
Experimental: (§1) To assess the oncolytic efficacy of QTX125-containing combination therapies in vitro, colonic, pancreatic, hepatic and ovarian tumour cells were administered sorafenib, gemcitabine or bortezomib at EC25, EC50 and EC75 doses. QTX125 was co-administered in order to produce a dose response curve.
(§2) To prepare cells for viability assays, cells were transferred into 96 well tissue culture plates (Cultek), and resuspended in 100 µL at the following densities: 10,000 cells/well (Hep-G2 and MiaPaCa-2), 5000 cells/well (Panc-1 and SK-OV-3) or 3000 cells/well (HCT-116). Following 24 hours of incubation, media was removed and replaced with 100 µL media spiked with QTX125 and the test chemotherapeutic agents. Stock solutions for the agents used in this study are shown below in Table 1. Cells were incubated for a further 72 hours before cell viability was assessed using both ALAMAR® and hexosaminidase assays.
(§3) For the hexosaminidase assay, media containing QTX125 and the test chemotherapeutic agents was removed, and cells were washed once with PBS. 60 μL of substrate solution (containing: 7.5 mM p-nitrophenol-N-acetyl-beta-D-glucosamide [Sigma N-9376], 0.1 M sodium citrate, pH 5.0 and 0.25% Triton X-100) was added to each well and cells were incubated at 37° C. for at least 1 hour. Incubating cells in this manner causes the substrate solution to become bright yellow, at which point 90 μL of developer solution (containing 50 mM Glycine pH 10.4 and 5 mM EDTA) was added to each well. Absorbance at 410 nm was recorded using a plate reader.
(§4) Control values were normalised to 100% and percentage (%) viability was calculated. Data were used to plot log dose-response curves using a sigmoid dose-response (variable slope) equation. EC50 values were obtained using Equation 1, where ‘X’ is the logarithmic concentration; ‘Y’ is the response output and it is assumed that Y starts at bottom of the graph and reaches the top with an overall sigmoid shape.
(§5) Cls were obtained using Equation 2, where (Dm) 1 is the ECx concentration of QTX125 and (D) 1 is the ECx concentration of QTX125 in the presence of sorafenib, gemcitabine or bortezomib.
(§6) In order to assess the oncolytic efficacy of QTX125-containing combination therapies, monotherapy EC25, EC50 and EC75 doses for sorafenib, gemcitabine and bortezomib were calculated (as per Experiment 3) and administered to wells at these fixed concentrations. QTX125 was co-administered at a range of concentrations, in order to plot a dose-response curve such that the EC50 dose of QTX125 could be calculated in the presence of sorafenib/gemcitabine/bortezomib. QTX125 was administered to cells at a starting high-dose, and a 1:1 dilution was completed thereafter. In this part of the study, only the hexosaminidase assay was employed to assess cell viability following treatment with QTX125-containing combination therapies.
(§7) It should be noted that it was not possible to determine the appropriate concentrations for gemcitabine in all cell lines tested. In cells resistant to gemcitabine, nominal concentrations were used in place of EC25, EC50 and EC75 doses (e.g., nominal doses of 1, 10 and 100 µM were used in Panc-1 and Hep-G2 cells).

[2] = system: MiaPaCa-2 pancreatic cancer cells; test: as above; format: cell-based; conditions: for EC50: Homo sapiens, MIA PaCa-2, MiaPaCa-2; for combination index (C.I.): MiaPaCa-2
Experimental: as §1, §2, §3, §4, §5, §6, §7

[3] = system: Hep-G2 hepatic cancer cells; test: as above; format: cell-based; conditions: for combination index (C.I): Hep-G2; for EC50: Homo sapiens, HepG2, Hep-G2
Experimental: as §1, §2, §3, §4, §5, §6, §7

[4] = system: mantle cell lymphoma, lung cancer and pancreatic cancer xenografts; conditions: lung cancer and pancreatic cancer xenograft murine models; cited from earlier work
[5] = Pharmacokinetic properties; format: in vivo; conditions: compared with other histone deacetylase inhibitors
[6] = + bortezomib at EC25 dose (0.006 μM)
[7] = + bortezomib at EC50 dose (0.007 μM)
[8] = + bortezomib at EC75 dose (0.012 μM)
[9] = + gemcitabine at EC25 dose (0.1 μM)
[10] = + gemcitabine at EC50 dose (0.25 μM)
[11] = + gemcitabine at EC75 dose (0.5 μM)
[12] = + sorafenib at EC25 dose (9.1 μM)
[13] = + sorafenib at EC50 dose (12.7 μM)
[14] = + sorafenib at EC75 dose (21.6 μM)
[15] = + bortezomib at EC25 dose (0.007 μM)
[16] = + bortezomib at EC50 dose (0.009 μM)
[17] = + bortezomib at EC75 dose (0.014 μM)
[18] = + gemcitabine at EC25 dose (0.01 μM)
[19] = + gemcitabine at EC50 dose (0.1 μM)
[20] = + gemcitabine at EC75 dose (1 μM)
[21] = + sorafenib at EC25 dose (4.2 μM)
[22] = + sorafenib at EC50 dose (6.8 μM)
[23] = + sorafenib at EC75 dose (10.3 μM)
[24] = + bortezomib at EC25 dose (0.014 μM)
[25] = + bortezomib at EC50 dose (0.016 μM)
[26] = + bortezomib at EC75 dose (0.026 μM)
[27] = + gemcitabine at EC25, nominal dose 1 μM
[28] = + gemcitabine at EC50, nominal dose 10 μM
[29] = + gemcitabine at EC75, nominal dose 100 μM
[30] = + sorafenib at EC25 dose (0.9 μM)
[31] = + sorafenib at EC50 dose (2.5 μM)
[32] = + sorafenib at EC75 dose (6.4 μM)

Q: Which EC50 [1, 6] does the source give for `O=C(NO)c1ccc(CNC(=O)c2[nH]c(-c3ccc(O)cc3)cc2-c2ccoc2)cc1` [QTX125, 3-(3-Furyl)-N-{4-[(hydroxyamino)carbonyl]benzyl}-5-(4-hydroxyphenyl)-1 Hpyrrole-2-carboxamide] here?
A: 532 nM

Q: And the EC50 [1, 7]?
A: 580 nM

Q: What about the EC50 [1, 8] of the same compound?
A: 262 nM

Q: What about the EC50 [1, 9] of the same compound?
A: 171 nM

Q: And the EC50 [1, 10]?
A: 303 nM

Q: And the EC50 [1, 11]?
A: 139 nM

Q: And the EC50 [1, 12]?
A: 389 nM

Q: And the EC50 [1, 13]?
A: 657 nM

Q: What about the EC50 [1, 14] of the same compound?
A: 406 nM

Q: What about the EC50 ([1]; no second agent (control of Table 5.4.1)) of the same compound?
A: 623 nM

Q: And the EC50 ([1]; no second agent (control of Table 5.4.2))?
A: 282 nM

Q: What about the EC50 ([1]; no second agent (control of Table 5.4.3)) of the same compound?
A: 633 nM

Q: What about the “combination index (C.I)” value [1, 6] of the same compound?
A: 0.8 arbitrary units

Q: And the “combination index (C.I)” value [1, 7]?
A: 0.9 arbitrary units

Q: What about the “combination index (C.I)” value [1, 8] of the same compound?
A: 0.4 arbitrary units

Q: What about the “combination index (C.I)” value [1, 9] of the same compound?
A: 0.6 arbitrary units

Q: What about the “combination index (C.I)” value [1, 10] of the same compound?
A: 1.1 arbitrary units

Q: And the “combination index (C.I)” value [1, 11]?
A: 0.5 arbitrary units

Q: And the “combination index (C.I)” value [1, 12]?
A: 0.6 arbitrary units

Q: And the “combination index (C.I)” value [1, 13]?
A: 1.1 arbitrary units

Q: What about the “combination index (C.I)” value [1, 14] of the same compound?
A: 0.7 arbitrary units

Q: What about the EC50 [2, 15] of the same compound?
A: 239 nM

Q: What about the EC50 [2, 16] of the same compound?
A: 239 nM

Q: What about the EC50 [2, 17] of the same compound?
A: 246 nM

Q: And the EC50 [2, 18]?
A: 133 nM

Q: And the EC50 [2, 19]?
A: 112 nM

Q: And the EC50 [2, 20]?
A: 45.6 nM

Q: And the EC50 [2, 21]?
A: 258 nM

Q: And the EC50 [2, 22]?
A: 279 nM

Q: And the EC50 [2, 23]?
A: 260 nM

Q: And the EC50 ([2]; no second agent (control of Table 5.2.1))?
A: 214 nM

Q: What about the EC50 ([2]; no second agent (control of Table 5.2.2)) of the same compound?
A: 146 nM

Q: And the EC50 ([2]; no second agent (control of Table 5.2.3))?
A: 230 nM

Q: And the “combination index (C.I.)” value [2, 15]?
A: 1.0 arbitrary units

Q: What about the “combination index (C.I.)” value [2, 16] of the same compound?
A: 1.0 arbitrary units

Q: And the “combination index (C.I.)” value [2, 17]?
A: 1.1 arbitrary units

Q: And the “combination index (C.I.)” value [2, 18]?
A: 0.9 arbitrary units

Q: What about the “combination index (C.I.)” value [2, 19] of the same compound?
A: 0.8 arbitrary units

Q: What about the “combination index (C.I.)” value [2, 20] of the same compound?
A: 0.3 arbitrary units

Q: And the “combination index (C.I.)” value [2, 21]?
A: 1.2 arbitrary units

Q: What about the “combination index (C.I.)” value [2, 22] of the same compound?
A: 1.3 arbitrary units

Q: And the “combination index (C.I.)” value [2, 23]?
A: 1.2 arbitrary units

Q: What about the “combination index (C.I)” value [3, 24] of the same compound?
A: 0.4 arbitrary units

Q: And the “combination index (C.I)” value [3, 25]?
A: 0.2 arbitrary units

Q: What about the “combination index (C.I)” value [3, 26] of the same compound?
A: 0.2 arbitrary units

Q: What about the “combination index (C.I)” value [3, 27] of the same compound?
A: 0.6 arbitrary units

Q: What about the “combination index (C.I)” value [3, 28] of the same compound?
A: 0.2 arbitrary units

Q: What about the “combination index (C.I)” value [3, 29] of the same compound?
A: 0.05 arbitrary units

Q: What about the “combination index (C.I)” value [3, 30] of the same compound?
A: 0.5 arbitrary units

Q: And the “combination index (C.I)” value [3, 31]?
A: 0.4 arbitrary units

Q: And the “combination index (C.I)” value [3, 32]?
A: 0.5 arbitrary units

Q: What about the EC50 [3, 24] of the same compound?
A: 237 nM

Q: What about the EC50 [3, 25] of the same compound?
A: 128 nM

Q: What about the EC50 [3, 26] of the same compound?
A: 91 nM

Q: And the EC50 [3, 27]?
A: 744 nM

Q: What about the EC50 [3, 28] of the same compound?
A: 198 nM

Q: What about the EC50 [3, 29] of the same compound?
A: 56.1 nM

Q: And the EC50 [3, 30]?
A: 87.9 nM

Q: What about the EC50 [3, 31] of the same compound?
A: 74.9 nM

Q: And the EC50 [3, 32]?
A: 87.2 nM

Q: And the EC50 ([3]; no second agent (control of Table 5.3.1))?
A: 189 nM

Q: What about the EC50 ([3]; no second agent (control of Table 5.3.2)) of the same compound?
A: 1200 nM

Q: And the EC50 ([3]; no second agent (control of Table 5.3.3))?
A: 544 nM

Q: What about the antitumoral efficacy [4] of the same compound?
A: high antitumoral efficacy

Q: And the “pharmacokinetic properties (half-lives and distribution volumes)” value [5]?
A: higher half-lives and distribution volumes
